Measured values from patent US20070105826A1, “Novel fusidic acid derivatives” (LEO PHARMA A/S, priority 2003, published 2007).
In brackets after ≈: the same amount, converted by molar mass.

Columns and labels:
Experiment in all cases: MIC (Minimum Inhibitory Concentration) determination, broth dilution in 96-well plates
Type in all cases: cell-based
[1] = tested on: Staphylococcus aureus FDA486; conditions: LB broth, aerobic, 37° C., 24 h, cells at t = 0 ˜10^6/ml; for MIC: Staphylococcus aureus, FDA486, read-out: Antibacterial activity, MIC, Staph. aureus FDA486
Method: (§1) The fusidic acid analogues of the invention and the reference compounds 201 (fusidic acid (as the sodium salt)), 207, 205 203 and 206 (see notes to Table A) were stored in powder form at +4° C. When used in assays, they were dissolved in 95% EtOH (3.84 mg/ml) and kept for a maximum of 1 month at −20° C. before being discarded. [table] LB media (per 1000 ml ddH2O: 10 g Bacto-tryptone, 5 g yeast extract, 10 g NaCl). THB (Todd-Hewitt Broth) media, SIGMA, product number: T1438 (per 1000 ml ddH2O: 50 g Beef-Heart Infusion, 20 g Casein peptone, 2 g Dextrose, 2 g NaHCO3, 2.5 g NaCl, 0.4 g Na2HPO4). Plates were made using an agar concentration of 1.5%. Blood-agar plates contained an additional 5% (v/v) defibrinated horse blood purchased from SLU (Swedish Agricultural University), Uppsala. MIC tests on the compounds were done in 96-well micro titer plates (Thermo Labsystems). 4×10^5 bacteria were inoculated in 0.4 ml growth media (S. aureus, LB broth, S. pyogenes—TH broth) containing serial dilutions of the compound to be tested starting from 128 μg/ml (dilution factor 2, e.g. 128 μg/ml, 64 μg/ml, . . . , 0.016 μg/ml). The criterion for sensitivity is no visible growth after a 24 h, aerobic incubation at 37° C. Each compound was tested at least twice, and fusidic acid was always included as an experimental control. [table]

[2] = tested on: Staphylococcus aureus 8325-4; conditions: LB broth, aerobic, 37° C., 24 h, cells at t = 0 ˜10^6/ml
Method: as §1

[3] = tested on: Staphylococcus aureus CJ12; conditions: LB broth, aerobic, 37° C., 24 h, cells at t = 0 ˜10^6/ml; for MIC: Staphylococcus aureus, CJ12, read-out: Antibacterial activity, MIC, Staph. aureus CJ12
Method: as §1

[4] = tested on: Streptococcus pyogenes DA7121; conditions: TH broth, aerobic, 37° C., 24 h, cells at t = 0 ˜10^6/ml; for MIC: Streptococcus pyogenes, DA7121, read-out: Antibacterial activity, MIC, Strep. pyogenes DA7121
Method: as §1

[5] = tested on: Streptococcus pyogenes DA7864; conditions: TH broth, aerobic, 37° C., 24 h, cells at t = 0 ˜10^6/ml; for MIC: Streptococcus pyogenes, DA7864, read-out: Antibacterial activity, MIC, Strep. pyogenes DA7864
Method: as §1

## 24-bromo-16-deacetoxy-16β-ethoxy-fusidic acid [Compound 116]
[1]
  Antibacterial activity, MIC, Staph. aureus FDA486: 0.44 µg/mL
[2]
  Antibacterial activity, MIC, Staph. aureus 8325-4: 0.11 µg/mL
[3]
  Antibacterial activity, MIC, Staph. aureus CJ12: 0.06 µg/mL
[4]
  Antibacterial activity, MIC, Strep. pyogenes DA7121: 7 µg/mL
[5]
  Antibacterial activity, MIC, Strep. pyogenes DA7864: 7 µg/mL

## 24-bromo-17S,20S-dihydrofusidic acid [Compound 115]
[1]
  Antibacterial activity, MIC, Staph. aureus FDA486: 0.88 µg/mL
[2]
  Antibacterial activity, MIC, Staph. aureus 8325-4: 0.11 µg/mL
[3]
  Antibacterial activity, MIC, Staph. aureus CJ12: 0.06 µg/mL
[4]
  Antibacterial activity, MIC, Strep. pyogenes DA7121: 1.8 µg/mL
[5]
  Antibacterial activity, MIC, Strep. pyogenes DA7864: 1.8 µg/mL

## 24-bromo-17S,20S-methylene-fusidic acid [Compound 122]
[1]
  Antibacterial activity, MIC, Staph. aureus FDA486: 0.88 µg/mL
[2]
  Antibacterial activity, MIC, Staph. aureus 8325-4: 0.88 µg/mL
[3]
  Antibacterial activity, MIC, Staph. aureus CJ12: 0.22 µg/mL
[4]
  Antibacterial activity, MIC, Strep. pyogenes DA7121: 7 µg/mL
[5]
  Antibacterial activity, MIC, Strep. pyogenes DA7864: 7 µg/mL

## CC(=O)O[C@H]1C[C@@]2(C)[C@@H](C[C@@H](O)[C@H]3[C@@]4(C)CC[C@@H](O)[C@@H](C)[C@@H]4CC[C@@]32C)/C1=C(\CCC(Br)=C(C)C)C(=O)O [Compound 108, 24-bromo-fusidic acid]
[1]
  Antibacterial activity, MIC, Staph. aureus FDA486: 0.05 µg/mL
[3]
  Antibacterial activity, MIC, Staph. aureus CJ12: 0.03 µg/mL
[4]
  Antibacterial activity, MIC, Strep. pyogenes DA7121: 0.8 µg/mL
[5]
  Antibacterial activity, MIC, Strep. pyogenes DA7864: 0.8 µg/mL

## CC(C)=C(Br)CC/C(C(=O)O)=C1\C2C[C@@H](O)C3[C@@]4(C)CC[C@@H](O)[C@@H](C)C4CC[C@]3(C)[C@@]2(C)C[C@@H]1[S+]([O-])C(C)C (stereo partly drawn) [Compound 113, 24-bromo-16-deacetoxy-16β-isopropylsulfinyl-fusidic acid]
[1]
  MIC: 0.22 µg/mL (≈ 0.35 µM)
[3]
  MIC: 0.11 µg/mL (≈ 0.175 µM)
[4]
  MIC: 0.4 µg/mL (≈ 0.637 µM)
[5]
  MIC: 0.4 µg/mL (≈ 0.637 µM)

## CC(=O)O[C@H]1C[C@@]2(C)[C@@H](C[C@@H](O)[C@H]3[C@@]4(C)CC[C@@H](O)[C@@H](C)[C@@H]4CC[C@@]32C)/C1=C(\CCC=C(C)C)C(=O)O [Ref. comp. 201, Fusidic acid]
[1]
  MIC: 0.11 µg/mL (≈ 0.213 µM)
[2]; Staphylococcus aureus, 83254, read-out: Antibacterial activity, MIC, Staph. aureus 8325-4
  MIC: 0.03 µg/mL (≈ 0.0581 µM)
[3]
  MIC: 0.03 µg/mL (≈ 0.0581 µM)
[4]
  MIC: 3.5 µg/mL (≈ 6.77 µM)
[5]
  MIC: 3.5 µg/mL (≈ 6.77 µM)

## CCO[C@H]1C[C@@]2(C)[C@@H](C[C@@H](O)[C@H]3[C@@]4(C)CC[C@@H](O)[C@@H](C)[C@@H]4CC[C@@]32C)/C1=C(\CCC=C(C)C)C(=O)O [Ref. comp. 203, 16-Deacetoxy-16β-ethoxy-fusidic acid]
[1]
  Antibacterial activity, MIC, Staph. aureus FDA486: 0.22 µg/mL
[2]
  Antibacterial activity, MIC, Staph. aureus 8325-4: 0.22 µg/mL
[3]
  Antibacterial activity, MIC, Staph. aureus CJ12: 0.06 µg/mL
[4]
  Antibacterial activity, MIC, Strep. pyogenes DA7121: 7 µg/mL
[5]
  Antibacterial activity, MIC, Strep. pyogenes DA7864: 14 µg/mL

## CC(=O)OC1CC2(C)C(CC(O)C3C4(C)CCC(O)C(C)C4CCC32C)C1C(CCC=C(C)C)C(=O)O (stereo not drawn) [Ref. comp. 205, 17S,20S-Dihydrofusidic acid]
[1]
  Antibacterial activity, MIC, Staph. aureus FDA486: 0.44 µg/mL
[2]
  Antibacterial activity, MIC, Staph. aureus 8325-4: 0.11 µg/mL
[3]
  Antibacterial activity, MIC, Staph. aureus CJ12: 0.06 µg/mL
[4]
  Antibacterial activity, MIC, Strep. pyogenes DA7121: 14 µg/mL
[5]
  Antibacterial activity, MIC, Strep. pyogenes DA7864: 28 µg/mL

## CC(=O)O[C@H]1C[C@@]2(C)[C@@H](C[C@@H](O)[C@H]3[C@@]4(C)CC[C@@H](O)[C@@H](C)[C@@H]4CC[C@@]32C)[C@]12C[C@]2(CCC=C(C)C)C(=O)O [Ref. comp. 206, 17S,20S-Methylene-fusidic acid]
[1]
  Antibacterial activity, MIC, Staph. aureus FDA486: 0.22 µg/mL
[2]
  Antibacterial activity, MIC, Staph. aureus 8325-4: 0.11 µg/mL
[3]
  Antibacterial activity, MIC, Staph. aureus CJ12: 0.06 µg/mL
[4]
  Antibacterial activity, MIC, Strep. pyogenes DA7121: >32 µg/mL
[5]
  Antibacterial activity, MIC, Strep. pyogenes DA7864: 28 µg/mL

## CC(C)=CCC/C(C(=O)O)=C1/[C@@H]([S+]([O-])C(C)C)C[C@@]2(C)[C@H]1C[C@@H](O)[C@H]1[C@@]3(C)CC[C@@H](O)[C@@H](C)[C@@H]3CC[C@@]12C (stereo partly drawn) [Ref. comp. 207, 16-Deacetoxy-16β-isopropylsulfinyl-fusidic acid]
[1]
  Antibacterial activity, MIC, Staph. aureus FDA486: 0.22 µg/mL
[3]
  Antibacterial activity, MIC, Staph. aureus CJ12: 0.05 µg/mL
[4]
  Antibacterial activity, MIC, Strep. pyogenes DA7121: 1.6 µg/mL
[5]
  Antibacterial activity, MIC, Strep. pyogenes DA7864: 1.6 µg/mL
